# Experimental data published in patent US20160024421A1, “IONIC LIQUIDS CONTAINING QUATERNARY PHOSPHONIUM CATIONS AND CARBOXYLATE ANIONS, AND THEIR USE AS LUBRICANT ADDITIVES” (UT-Battelle, LLC, priority 2014, published 2016).
# Read-outs that look alike come from different tables or passages of the source.
# Columns and labels:
# Type in all cases: physicochemical
# [1] = Kinematic viscosity (Petrolab Minivis II viscometer); parameters: unit not given here
# Method: (§1) Thermogravimetric analysis (TGA) was performed on a thermogravimetric analyzer (TGA-2950, TA instruments) at a 10° C./min heating rate in air. […] The kinematic viscosities were measured on a […] viscometer.
# Density = experiment: Density
# [2] = Thermogravimetric analysis (decomposition temperature)
# Method: as §1
Compound,Kinematic Viscosity @ 40° C. ([1]; 40° C.),Density @ 20° C. (Density; 20° C.),Decomp. temperature [2],Kinematic Viscosity @ 40° C. [1],"Decomp. temperature ([2]; TGA, 10° C./min heating rate in air)",Density @ 20° C. (Density)
CCCCCCCCCC(=O)[O-].CCCCCCCCCCCCCC[P+](CCCCCC)(CCCCCC)CCCCCC [[P66614][C9H19COO]s],solid,0.89 g/mL,–,–,–,–
trihexyltetradecylphosphonium octanoate [[P66614][C7H15COO]s],–,–,261 °C,122.2,–,–
CCCCCCCCCCCCCCCCCC(=O)[O-].CCCCCCCCCCCCCC[P+](CCCCCC)(CCCCCC)CCCCCC [[P66614][C17H35COO]s],–,0.88 g/mL,–,–,308 °C,–
trihexyltetradecylphosphonium 2-ethylhexanoate [[P66614][C7H15COO]b],–,–,308 °C,184.8,–,0.88 g/mL
